One test concerns KPC PDAC tumors. Briefly: FITC-dextran (10 kDa) perfusion imaging, KPC tumors. Type of test: in vivo, mouse. The conditions noted are these: for FITC-dextran (10 kDa) signal quantification: Extended Data 5C, KPC tumour endpoint, individual FOV, 5xFOV per tumour. Here is the method:
FITC-dextran (10 kDa) was administered at 40 mg ml^−1 in saline via tail vain 2 h before culling. Excised tumors were flash-frozen in OCT and cryosectioned at 14 μm. Sections were counterstained with 4,6-diamidino-2-phenylindole (DAPI) and images were collected using a Leica DMI5500 (×40 magnification). Images were quantified using Fiji Software for Integrated Density Signal.
Extended Data Fig. 5 PXS-5505 in combination with gemcitabine in vivo. a. […] Signal is defined as the enzyme activity in the aorta, while noise is measured in the presence of a high concentration (300 µM) BAPN to abolish any lysyl oxidase family activity. […] Data presented as mean values +/− SD b. […] Data presented as mean values +/− SD. c. FITC-dextran (molecular weight: 10 kDa) signal quantification from KPC tumor end point from each treatment group (vehicle n = 3 biologically independent animals, PXS-5505 n = 5 biologically independent animals, Gem n = 5 biologically independent animals, PXS-5505 + Gem n = 5 biologically independent animals). […] P-values determined by Welchs t-test. Data presented as mean values +/− SD. Scale bars = 100 μm d. Quantification of red birefringent (mature) collagen fibers from human PDXs at end point after 3 cycles of treatment, treated as indicated. […] Quantification of bulk modulus (stiffness) by unconfined compression testing of end point human PDX tumors from each treatment group (vehicle n = 5 biologically independent animals, Gem n = 5 biologically independent animals, PXS-5505 n = 5 biologically independent animals, PXS-5505 + Gem n = 5 biologically independent animals) [individual tumors shown]). […] FITC-dextran (molecular weight 10 kDa) signal quantification from human PDXs from each treatment group (vehicle n = 4 biologically independent animals, PXS-5505 n = 5 biologically independent animals, Gem n = 5 biologically independent animals, PXS-5505 + Gem n = 5 biologically independent animals). […] P values determined by Welchs t-test. g. […] Quantification of green birefringent (nascent) collagen fibers from human PDXs at end point, treated as indicated. […]

Test [1] deals with KPC CCs liver colonization. Briefly: Intrasplenic model of liver colonization, early administration of treatment. Type of test: in vivo, mouse. The conditions noted are these: for metastases/mm2: early administration, individual animals; for number of metastatic foci in liver / size of metastatic foci in liver: treatment from day 1 until day 10. Here is the method: Fig. 5 PXS-5505 administered in intrasplenic models of liver colonization. a, Schematic of the intrasplenic model of liver colonization with early administration of treatment. CCs were implanted into the spleen of BALB/c-Fox1nuAusb mice under anesthesia on day 0. Treatment with 0.9% saline (vehicle); twice-weekly Gem (100 mg kg^−1 i.p.) (Gem); daily PXS-5505 at 20 mg kg^−1 i.p. (PXS-5505) or daily PXS-5505 at 20 mg kg^−1 i.p. + twice-weekly Gem at 100 mg kg^−1 i.p. (PXS-5505 + Gem) was administered from day 1. At the end point (day 10) livers were collected and H&E-stained for scoring. Representative images of H&E-stained liver (taken from one biologically independent animal). Scale bar, 100 μm. b, Representative images of H&E-stained livers from each treatment group (n = 1 FOV taken from one biologically independent animal per group). Scale bars, 100 μm. c, Quantification of metastases per mm^2 (n = 9 biologically independent animals per group). Data are mean ± s.d. […] Data are mean ± s.d. Two-tailed P values were determined by an unpaired, nonparametric t-test with a Mann–Whitney U-test correction (comparison between two groups). e, Schematic of intrasplenic model of liver colonization with late administration of treatment. CCs were implanted into the spleen of BALB/c-Fox1nuAusb mice under anesthesia on day 0. Treatment with 0.9% saline (vehicle); twice-weekly Gem (100 mg kg^−1 i.p.) (Gem); daily PXS-5505 at 20 mg kg^−1 i.p. (PXS-5505); or daily PXS-5505 at 20 mg kg^−1 i.p. + three doses of Gem (100 mg kg^−1 i.p. (PXS-5505 + Gem) was administered from day 4. Representative images of H&E-stained liver (taken from one biologically independent animal). Scale bar, 100 μm. f, Quantification of metastases at endpoint (n = 10 biologically independent animals per treatment group, n = 5 biologically independent animals at day 4 for confirmation of overt metastases). Data are mean ± s.d. P values were determined by an unpaired, nonparametric t-test with a Mann–Whitney U-test correction (comparison between two groups). g, Representative images of H&E-stained livers from each treatment group. Scale bars, 100 μm. Source data
For the intrasplenic models, animals were randomized before receiving treatment. GLP-grade PXS-5505 (20 mg kg^−1) was administered daily i.p. (starting day 0 for the early stage and day 4 for the late stage) until the end point and gemcitabine (100 mg kg^−1) was administered on days 3, 6 and 9 for the early stage and days 5, 7 and 10 for the late stage.
KPC CCs (5 × 10^5 cells per mouse in 50 μl Hanks balanced saline solution) were slowly injected into the spleens of 8-week-old female BALB/c-Fox1nuAusb mice under anesthesia (isoflurane […], O2 1 l min^−1 with vacuum) as previous described. For the duration of the study mice were kept in conventional caging with environmental enrichment, access to standard chow, water ad libitum and 12-h light–dark cycle at ambient temperature and humidity. For intrasplenic studies, mice were culled at defined end points (10 d for early colonization studies and 11 d for late colonization studies). Animals with non-tumor-related complications that led to a premature end point were censored. At the end point, mice were imaged by whole-body bioluminescent imaging using an IVIS Spectrum (Caliper LS), culled and livers were removed for additional bioluminescent imaging before formalin fixing and paraffin embedding.
The 4-µm formalin-fixed paraffin-embedded (FFPE) sections were cut and stained for H&E following standard histopathology methodologies or stained for CK19 using the Bond RX H2(30) protocol detailed above. Whole liver sections were then digitized on an Aperio slide scanner for blinded analysis. The total number of liver metastases were quantified and determined using QuPath[57].

SMILES strings stand for the structures. Several values for one entry are separate records, joined by “and”; a condition that tells them apart may be missing. Equal values may be shown once.

For the compound `Cl.Cl.NC/C=C(\F)CS(=O)(=O)c1cccc2cccnc12.O` [PXS-5505, (Z)-3-fluoro-4-(quinolin-8-ylsulfonyl)but-2-en-1-amine dihydrochloride monohydrate], in the test with KPC PDAC tumors, the “FITC-dextran (10 kDa) signal quantification” value was 643536 and 877109 and 855018 and 639402 and 1028780 and 1101294 and 1096543 and 614729 and 1678517 and 411292 and 888855 and 96222 and 332580 and 192955 and 224263 and 475860 and 248857 and 803743 and 104073 and 736895. In addition, in test [1], the metastases/mm2 is 0.0002211 /mm2 and 8.732e-6 /mm2 and 2.758e-6 /mm2 and 0.0001431 /mm2 and 0.0002677 /mm2 and 0.0002826 /mm2 and 0.0003511 /mm2 and 0.0007717 /mm2 and 3.2079e-5 /mm2; the “number of metastatic foci in liver” value was “small decrease in number”; the “size of metastatic foci in liver” value is listed as “not size of metastatic foci”.

As to `Nc1ccn([C@@H]2O[C@H](CO)[C@@H](O)C2(F)F)c(=O)n1` [Gem, gemcitabine], the “FITC-dextran (10 kDa) signal quantification” value with KPC PDAC tumors is 60068 and 66083 and 67045 and 264388 and 103749 and 136715 and 44993 and 342971 and 570220 and 195046 and 425899 and 308368 and 729076 and 598797 and 690249 and 193339 and 215616 and 99212 and 74761 and 57841. In addition, the “FITC-dextran signal (tumor perfusion)” value in the test on KPC PDAC tumors (KPC tumors at end point) is “significantly reduced FITC signal”. Besides, in test [1], the metastases/mm2 was 1.138e-5 /mm2 and 9.508e-5 /mm2 and 3.779e-5 /mm2 and 0 /mm2 and 1.36e-5 /mm2 and 7.872e-6 /mm2 and 6.17e-6 /mm2; the “number of metastatic foci in liver” value is on record as “fewer”; the “size of metastatic foci in liver” value is listed as “smaller”.

These data come from publication PMC10518255, “A first-in-class pan-lysyl oxidase inhibitor impairs stromal remodeling and enhances gemcitabine response and survival in pancreatic cancer” (Nature Cancer, 2023).
